{"source": "patent US12516049B2", "about": "“Sulfonylurea ring substituted monocyclic β-lactam antibiotics” (priority 2019, dated 2026)", "key": {"[1]": {"test_system": "Enterobacter cloacae ATCC BAA-1143 (AmpC)", "experiment": "MIC, micro-liquid dilution (CLSI)", "type": "cell-based", "conditions": "ATCCBAA1143, E. cloacae ATCC BAA-1143, Class C (AmpC), 20-24 h, 37° C.", "experimental": "(§1) Three strains of Klebsiella pneumonia, ATCC BAA-205 (TEM-1/SHV-1/SHV-12), ATCC BAA-1705 (KPC-2), ATCC BAA-2470 (NDM-1), Enterobacter cloacae ATCC BAA-1143 (AmpC), two strains of Escherichia coli ATCC BAA-2523 (OXA-48), ATCC 25922 were used to determine the minimum inhibitory concentration (MIC) of each of the compounds by micro-liquid dilution method according to the Institute of Clinical and Laboratory Standard (CLSI) requirements. […]. The plate was placed upside down at 37° C. and the MIC value was read after 20-24 h of incubation, and the lowest drug concentration that inhibited the growth of bacteria was set as MIC. Colony-Forming Units (CFU) refer to the total number of bacterial colonies per unit volume."}, "[2]": {"test_system": "Klebsiella pneumonia ATCC BAA-2470 (NDM-1)", "experiment": "MIC, micro-liquid dilution (CLSI)", "type": "cell-based", "conditions": "Klebsiella pneumoniae, ATCCBAA2470; K. pneumonia ATCC BAA-2470, Class B (NDM-1); 20-24 h, 37° C.", "experimental": "as §1"}, "[3]": {"test_system": "Klebsiella pneumonia ATCC BAA-1705 (KPC-2)", "experiment": "MIC, micro-liquid dilution (CLSI)", "type": "cell-based", "conditions": "Klebsiella pneumoniae, ATCCBAA1705; K. pneumonia ATCC BAA-1705, Class A (KPC-2); 20-24 h, 37° C.", "experimental": "as §1"}, "[4]": {"test_system": "Escherichia coli ATCC 25922", "experiment": "MIC, micro-liquid dilution (CLSI)", "type": "cell-based", "conditions": "ATCC25922, E. coli ATCC 25922, 20-24 h, 37° C.", "experimental": "as §1"}, "[5]": {"test_system": "Klebsiella pneumonia ATCC BAA-205 (TEM-1/SHV-1/SHV-12)", "experiment": "MIC, micro-liquid dilution (CLSI)", "type": "cell-based", "conditions": "Klebsiella pneumoniae, ATCCBAA205; K. pneumonia ATCC BAA-205, Class A (TEM-1/SHV-1/SHV-12); 20-24 h, 37° C.", "experimental": "as §1"}, "[6]": {"test_system": "Escherichia coli ATCC BAA-2523 (OXA-48)", "experiment": "MIC, micro-liquid dilution (CLSI)", "type": "cell-based", "conditions": "ATCCBAA2523, E. coli ATCC BAA-2523, Class D (OXA-48), 20-24 h, 37° C., read-out: MIC", "experimental": "as §1"}, "E. coli ATCC-25922": {"test_system": "E. coli ATCC-25922", "experiment": "Mouse thigh muscle model, E. coli ATCC-25922", "type": "in vivo", "conditions": "immunosuppressed female CD-1 mice; E. coli ATCC-25922 1.36E+06 CFU/mouse; 100 mg/kg subcutaneously at 2, 4, 6, 8 h after infection; end point 10 h", "experimental": "9 female CD-1 mice were divided into 3 cages, 3 mice per cage, and were injected intraperitoneally with immunosuppressant cyclophosphamide (150 mg/kg). 24 hours later, 3 cages of mice were injected intraperitoneally again with immunosuppressant cyclophosphamide (100 mg/kg). The strain E. coli ATCC-25922 was recovered on an MHA plate. The recovered colonies were picked and dissolved in saline to prepare E. coli ATCC-25922 bacterial solution with a concentration of 1.36E+07 CFU/mL for use in mouse thigh muscle infection. The amount of bacterial solution injected into the thigh muscle of the experimental mice was 100 μL/mouse, that is, the inoculation amount was 1.36E+06 CFU/mouse. 2 h after infection, the thigh muscle tissue of the mice in control group was taken and placed in 10 mL saline, homogenized, and dotted on a plate with gradient dilution. The specific administration of mice was as follows: (1) 2 h after infection: At the end point of 2 h infection, the thigh muscle tissue of the mice in the first cage was taken and placed in 10 mL saline, homogenized, and dotted on a plate with gradient dilution, two duplications for each mouse. The amount of bacteria loaded in the thigh muscle tissue of the mouse was counted. […] The amount of bacteria loaded in the thigh muscle tissue of the mouse was counted, and the experimental results were sorted and shown in Table 4."}}}
{"smiles": "Nc1nc(/C(=N/OC2(C(=O)O)CC2)C(=O)N[C@@H]2C(=O)N(S(=O)(=O)O)[C@@H]2CN2CCNS2(=O)=O)cs1", "note": "[Compound 1]", "values": [{"measurement": "MIC", "setting": "[1]", "value": 1, "unit": "µg/mL"}, {"measurement": "MIC", "setting": "[2]", "value": 0.5, "unit": "µg/mL"}, {"measurement": "MIC", "setting": "[3]", "value": 0.5, "unit": "µg/mL"}, {"measurement": "MIC", "setting": "[4]", "value": 1, "unit": "µg/mL"}, {"measurement": "MIC", "setting": "[5]", "value": 0.5, "unit": "µg/mL"}, {"measurement": "MIC", "setting": "[6]", "value": 0.5, "unit": "µg/mL"}, {"measurement": "Average CFU of the mouse (amount of bacteria loaded in thigh muscle tissue)", "setting": "E. coli ATCC-25922", "value": "2.25E+05", "unit": "CFU"}]}
